Source: US8623387B2, “External preparation composition comprising fatty acid-based ionic liquid as active ingredient” (Medrx Co., Ltd., priority 2007, dated 2014)
Where a name gives a salt, the structure may show the parent alone. Read-outs that look alike come from different tables or passages of the source.

Key:
[1] = Transdermal absorbability evaluation test using Franz-cells (rat skin permeation); conditions: for Rat skin permeability after 6 hours: tramadol salt liquid preparation free from ionic liquid, percentage of amount added onto the rat skin
[2] = cited from earlier work
[3] = pKa of acidic and basic substances present in the compositions; type: physicochemical; conditions: assumed to be equal to that of an analogue (footnote *1)
[4] = carboxylic acids and organic amine compounds used for the ionic liquids

Row | Molecule | pKa [2] | further results
1 | Lactate | – | Rat skin permeability after 6 hours [1]: 0.2%
2 | CCCCCCCCCCCCCC(=O)O [Myristic acid] | ca.4.9 | –
3 | CC(=O)CCC(=O)O [Levulinic acid] | 4.5 | –
4 | CC(C)CCCCCCCCCCCCCCC(=O)O [Isostearic acid] | approximately 4.9 | pKa [2, 4]: (pKa ≈ 4.9)
5 | Butyrate | – | Rat skin permeability after 6 hours [1]: 23.8%
6 | COc1ccc2c(c1)c(CC(=O)O)c(C)n2C(=O)c1ccc(Cl)cc1 [Indomethacin, reference compound] | – | Transdermal absorbability ([1]; indomethacin, cumulative amount permeated 6 hours after start of test, rat skin, Franz-cells): approximately 3 μg/cm^2
7 | CCc1ccc(C(=O)C(C)CN2CCCCC2)cc1 (centres unmarked) [Eperisone, reference compound] | 8.91 | –
8 | OCCN1CCCC1 [N-hydroxyethyl-pyrrolidine, N-hydroxyethylpyrrolidine] | 10.32 | –
9 | CCCCCCN [n-Hexylamine] | 10.85 | –
10 | CC(C(=O)O)c1ccc(-c2ccccc2)c(F)c1 (centres unmarked) [Flurbiprofen, reference compound] | 3.78 | –
11 | CCCCCCCCN [n-Octylamine] | – | pKa [3]: 10.7
12 | CCc1cccc2c3c([nH]c12)C(CC)(CC(=O)O)OCC3 (centres unmarked) [Etodolac, reference compound] | 4.5 | –
13 | CCCCCCCCCCCC(=O)O [Lauric acid] | – | pKa [2, 4]: (pKa ≈ 4.9)
14 | CC(C(=O)O)c1ccc(CC2CCCC2=O)cc1 (centres unmarked) [Loxoprofen, reference compound] | 4.20 | –
15 | CCCCCCCC/C=C\CCCCCCCC(=O)O [oleic acid] | approximately 4.9 | –
16 | NC1CCCCC1 [Cyclohexylamine] | 10.63 | –
17 | CCCCC(CC)C(=O)O.COc1cccc(C2(O)CCCCC2CN(C)C)c1 (centres unmarked) [2-ethylhexanoate, 2-ethylhexanoate of Tramadol] | – | Rat skin permeability after 6 hours [1]: 12.1%
18 | COc1cccc(C2(O)CCCCC2CN(C)C)c1 (centres unmarked) [Hydrochloride, tramadol hydrochloride, reference compound] | – | Rat skin permeability after 6 hours [1]: 4.5%
19 | Cc1ccc(C(=O)C(C)CN2CCCCC2)cc1 (centres unmarked) [Tolperisone, reference compound] | – | pKa [3]: ~8.9
